Legend:
PI3Kα = PI3Kα (Homo sapiens, UniProt P42336); assay: PI3K biochemical assay, ATP consumption by luciferase-luciferin chemiluminescence; settings: 3 nM enzyme, 10 μM PIP2, approximately 2 h; read-out: IC50 in the PI3K-alpha assay
Description: P13Kα activity was measured as the percent of ATP consumed following the kinase reaction using luciferase-luciferin-coupled chemiluminescence. Reactions were conducted in 384-well white, medium binding microliter plates (Greiner). Kinase reactions were initiated by combining test compounds. ATP, substrate (PIP2), and kinase in a 20 μL volume in a buffer solution. The standard P13Kalpha assay buffer was composed 50 mM Tris, pH 7.5, 1 mM EGTA, 10 mM MgCl2, 1 mM DTT and 0.03% CHAPS. The standard assay concentrations for enzyme, ATP, and substrate were 3 nM, IpM, and 10 μM, respectively. The reaction mixture was incubated at ambient temperature for approximately 2 h. Following the kinase reaction, a 10 μL aliquot of luciferase-luciferin mix (Promega Kinase-Glo) was added and the chemiluminescence signal measured using a Victor2 or EnVision (Perkin Elmer). Total ATP consumption was limited to 40-60% and IC50 values of control compounds correlate well with literature references. Substituting P13Kα with P13Kβ, […], or PI3Kδ, the inhibitory activity of the compounds for the other isoforms of P13-K were measured. For the P13Kβ and P13Kβ assays, enzyme concentrations were 10 nM and 4 nM. respectively. For the P13γ assay, enzyme concentration was 40 nM, the incubation time was 1 h, and the concentration of MgCl2 in the assay buffer was 5 mM.

mTOR/GbL/Raptor (mTORC1) = mTOR/GbL/Raptor (mTORC1) (Homo sapiens, UniProt P42345); assay: mTOR/GbL/Raptor (mTORC1) ELISA assay, phosphorylation of 4E-BP1; format: biochemical; settings: 0.2 nM mTORC1, 40 uM ATP, 50 nM NHis-tagged 4E-BP1, 120 minutes; read-out: IC50 in this assay (mTORC1 ELISA)
Method in brief: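 Phospho-4E-BP1 was quantified by luminescent ELISA (anti-phospho-4E-BP1 IgG, HRP-tagged secondary) after capture of the His-tagged substrate on Ni-chelate plates.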

PI3Kα, sequence (P42336 whole entry): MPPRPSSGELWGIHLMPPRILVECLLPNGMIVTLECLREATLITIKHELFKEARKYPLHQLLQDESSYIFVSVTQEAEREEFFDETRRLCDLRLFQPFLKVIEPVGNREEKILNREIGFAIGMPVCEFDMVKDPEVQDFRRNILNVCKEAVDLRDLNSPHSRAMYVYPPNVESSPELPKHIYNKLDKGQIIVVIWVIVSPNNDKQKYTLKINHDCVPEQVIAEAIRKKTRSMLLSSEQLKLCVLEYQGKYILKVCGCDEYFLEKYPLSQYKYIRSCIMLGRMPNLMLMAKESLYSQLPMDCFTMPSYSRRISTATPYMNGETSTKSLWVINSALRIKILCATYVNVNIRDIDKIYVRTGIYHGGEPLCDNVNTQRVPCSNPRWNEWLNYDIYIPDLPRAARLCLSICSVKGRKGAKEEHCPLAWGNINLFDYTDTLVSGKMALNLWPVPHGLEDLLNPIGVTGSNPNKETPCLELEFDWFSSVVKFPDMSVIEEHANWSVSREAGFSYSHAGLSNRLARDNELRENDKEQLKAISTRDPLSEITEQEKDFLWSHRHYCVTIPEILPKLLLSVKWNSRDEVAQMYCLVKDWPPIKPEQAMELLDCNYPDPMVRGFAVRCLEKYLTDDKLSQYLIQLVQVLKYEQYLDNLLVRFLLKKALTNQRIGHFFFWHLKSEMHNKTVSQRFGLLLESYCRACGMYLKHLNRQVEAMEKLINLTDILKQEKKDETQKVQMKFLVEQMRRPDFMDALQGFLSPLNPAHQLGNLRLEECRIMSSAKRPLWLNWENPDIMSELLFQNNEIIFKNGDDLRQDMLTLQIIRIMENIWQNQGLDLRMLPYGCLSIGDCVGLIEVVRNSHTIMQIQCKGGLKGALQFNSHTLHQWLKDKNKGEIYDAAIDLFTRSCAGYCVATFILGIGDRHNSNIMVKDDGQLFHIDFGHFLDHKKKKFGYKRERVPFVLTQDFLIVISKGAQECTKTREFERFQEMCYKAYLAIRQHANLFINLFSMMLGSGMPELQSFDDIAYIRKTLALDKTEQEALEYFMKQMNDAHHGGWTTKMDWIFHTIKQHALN
PI3Kα, sequence (P27986 whole entry partner): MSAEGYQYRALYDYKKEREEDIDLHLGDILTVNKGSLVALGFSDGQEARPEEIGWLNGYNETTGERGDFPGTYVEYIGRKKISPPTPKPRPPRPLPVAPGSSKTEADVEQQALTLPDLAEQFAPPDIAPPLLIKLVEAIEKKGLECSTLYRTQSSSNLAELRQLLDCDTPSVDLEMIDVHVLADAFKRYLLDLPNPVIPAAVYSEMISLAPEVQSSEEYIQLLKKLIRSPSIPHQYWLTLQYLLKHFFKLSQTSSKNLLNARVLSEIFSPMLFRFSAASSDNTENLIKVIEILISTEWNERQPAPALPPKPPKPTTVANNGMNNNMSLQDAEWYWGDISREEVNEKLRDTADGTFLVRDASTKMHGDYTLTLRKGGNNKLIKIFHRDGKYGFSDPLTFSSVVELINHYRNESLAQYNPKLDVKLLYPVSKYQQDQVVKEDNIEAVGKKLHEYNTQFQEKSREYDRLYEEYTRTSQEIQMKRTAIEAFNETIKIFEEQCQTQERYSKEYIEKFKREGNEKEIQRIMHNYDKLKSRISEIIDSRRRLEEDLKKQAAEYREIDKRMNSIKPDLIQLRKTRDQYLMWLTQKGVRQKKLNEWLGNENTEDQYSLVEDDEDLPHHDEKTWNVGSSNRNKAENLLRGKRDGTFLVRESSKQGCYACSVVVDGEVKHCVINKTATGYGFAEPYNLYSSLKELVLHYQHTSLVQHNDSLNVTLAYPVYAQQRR

Row | SMILES | IC50 (PI3Kα) [nM] | IC50 (mTOR/GbL/Raptor (mTORC1)) [nM]
1 | CCc1cc(-c2cnc3sc(N)nc3c2)cc2c1OCCN(c1nc(N)nc(C)c1C(C)C)C2 [Compound 17, 6-{4-[2-amino-6-methyl-5-(1-methylethyl)pyrimidin-4-yl]-9-ethyl-2,3,4,5-tetrahydro-1,4-benzoxazepin-7-yl}[1,3]thiazolo[5,4-b]pyridin-2-amine] | 500 to 2500 | ≤ 100
2 | CCNC(=O)c1sc(N2CCOc3c(C)cc(-c4cnc(Cl)c(NS(C)(=O)=O)c4)cc3C2)nc1C(C)C [Compound 33, 2-[7-{6-chloro-5-[(methylsulfonyl)amino]pyridin-3-yl}-9-methyl-2,3-dihydro-1,4-benzoxazepin-4(5H)-yl]-N-ethyl-4-(1-methylethyl)-1,3-thiazole-5-carboxamide] | 500 to 2500 | 100 to 500
3 | COC(=O)c1ccc(-c2cc(C)c3c(c2)CN(c2nc(N)nc(C)c2C(C)C)CCO3)cc1OC [Compound 68, methyl 4-{4-[2-amino-6-methyl-5-(1-methylethyl)pyrimidin-4-yl]-9-methyl-2,3,4,5-tetrahydro-1,4-benzoxazepin-7-yl}-2-(methyloxy)benzoate] | 500 to 2500 | 100 to 500
4 | C=Cc1cnc(N)nc1N1CCOc2c(C)cc(-c3cnc4sc(N)nc4c3)cc2C1 [Compound 89, 6-[4-(2-amino-5-ethenylpyrimidin-4-yl)-9-methyl-2,3,4,5-tetrahydro-1,4-benzoxazepin-7-yl][1,3]thiazolo[5,4-b]pyridin-2-amine] | ≤ 100 | ≤ 100
5 | [2H]C1([2H])Oc2c(C)cc(-c3cnc4sc(N)nc4c3)cc2CN(c2nc(N)nc(C)c2C(C)C)C1([2H])[2H] [Compound 122, 6-{4-[2-amino-6-methyl-5-(1-methylethyl)pyrimidin-4-yl]-2,3,4,5-tetrahydro-1,4-benzoxazepin-7-yl}[1,3]thiazolo[5,4-b]pyridin-2-amine-d_4_] | ≤ 100 | ≤ 100

Continued, values first:

Row | IC50 (PI3Kα) [nM] | IC50 (mTOR/GbL/Raptor (mTORC1)) [nM] | SMILES
6 | 500 to 2500 | ≤ 100 | Cc1cc(-c2cnc(O)c(NS(C)(=O)=O)c2)cc2c1OCCN(c1nc(N)nc(C)c1C(C)C)C2 [Compound 19, N-(5-{4-[2-amino-6-methyl-5-(1-methylethyl)pyrimidin-4-yl]-9-methyl-2,3,4,5-tetrahydro-1,4-benzoxazepin-7-yl}-2-hydroxypyridin-3-yl)methanesulfonamide]
7 | 500 to 2500 | 100 to 500 | Cc1cc(-c2cccc(N)c2)cc2c1OCCN(c1nc(N)nc(C)c1C(C)C)C2 [Compound 69, 4-[7-(3-aminophenyl)-9-methyl-2,3-dihydro-1,4-benzoxazepin-4(5H)-yl]-6-methyl-5-(1-methylethyl)pyrimidin-2-amine]
8 | 500 to 2500 | 100 to 500 | Cc1cc(-c2cn(C)nc2C)cc2c1OCCN(c1nc(N)nc(C)c1C(C)C)C2 [Compound 109, 4-[7-(1,3-dimethyl-1H-pyrazol-4-yl)-9-methyl-2,3-dihydro-1,4-benzoxazepin-4(5H)-yl]-6-methyl-5-(1-methylethyl)pyrimidin-2-amine]
9 | 500 to 2500 | 100 to 500 | Cc1cc(-c2cnn(C)c2C)cc2c1OCCN(c1nc(N)nc(C)c1C(C)C)C2 [Compound 110, 4-[7-(1,5-dimethyl-1H-pyrazol-4-yl)-9-methyl-2,3-dihydro-1,4-benzoxazepin-4(5H)-yl]-6-methyl-5-(1-methylethyl)pyrimidin-2-amine]

Source: patent publication US20140107100A1, “Benzoxazepines as Inhibitors of PI3K/mTOR and Methods of Their Use and Manufacture” (EXELIXIS, INC., priority 2010, published 2014)
